The source of these data is patent US20040034084A1, “Methods for using JNK inhibitors for treating or preventing disease-related wasting” (Celgene Corporation, priority 2002, published 2004).

The term IC50 denotes the midpoint of a concentration-inhibition curve. A low value points to greater potency in that assay.

The target in one series is p38-2 (Homo sapiens, UniProt Q15759). Description: Selectivity for JNK: protein kinase panel, p38-2. Format: biochemical. The procedure: (§1) 5-Amino-anthra(9,1-cd)isothiazol-6-one was also assayed for its inhibitory activity against several protein kinases, listed below, using techniques known to those skilled in art (See, e.g., Protein Phosphorylation, Sefton & Hunter, Eds., Academic Press, pp. 97-367, 1998).

A further series addresses T1, LKK1 (Homo sapiens, UniProt O15111).
T1 sequence (O15111 1-745): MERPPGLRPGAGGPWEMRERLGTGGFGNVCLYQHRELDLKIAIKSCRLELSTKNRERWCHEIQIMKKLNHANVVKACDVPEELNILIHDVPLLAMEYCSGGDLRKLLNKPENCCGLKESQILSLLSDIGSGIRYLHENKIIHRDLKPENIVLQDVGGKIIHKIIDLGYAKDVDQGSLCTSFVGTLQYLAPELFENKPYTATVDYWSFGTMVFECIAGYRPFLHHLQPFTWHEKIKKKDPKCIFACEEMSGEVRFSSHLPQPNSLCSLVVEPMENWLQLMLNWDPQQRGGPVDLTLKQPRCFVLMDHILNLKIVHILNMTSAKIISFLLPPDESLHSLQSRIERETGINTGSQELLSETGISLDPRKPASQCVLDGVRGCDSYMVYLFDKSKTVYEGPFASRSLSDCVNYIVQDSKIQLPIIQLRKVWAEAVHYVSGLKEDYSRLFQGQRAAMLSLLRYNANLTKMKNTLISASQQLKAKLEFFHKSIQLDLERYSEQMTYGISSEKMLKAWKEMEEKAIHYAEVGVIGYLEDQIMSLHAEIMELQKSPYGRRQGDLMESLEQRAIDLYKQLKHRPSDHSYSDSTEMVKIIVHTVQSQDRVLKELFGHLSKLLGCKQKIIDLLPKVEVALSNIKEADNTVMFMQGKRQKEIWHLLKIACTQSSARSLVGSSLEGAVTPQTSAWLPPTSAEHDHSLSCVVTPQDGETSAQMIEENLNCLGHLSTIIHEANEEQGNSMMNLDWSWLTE
Description: Selectivity for JNK: protein kinase panel, LKK1. The series is classed as biochemical. The procedure:
as §1

The target in another series is T2, IKK2 (Homo sapiens, UniProt O14920).
T2 sequence (O14920 1-756): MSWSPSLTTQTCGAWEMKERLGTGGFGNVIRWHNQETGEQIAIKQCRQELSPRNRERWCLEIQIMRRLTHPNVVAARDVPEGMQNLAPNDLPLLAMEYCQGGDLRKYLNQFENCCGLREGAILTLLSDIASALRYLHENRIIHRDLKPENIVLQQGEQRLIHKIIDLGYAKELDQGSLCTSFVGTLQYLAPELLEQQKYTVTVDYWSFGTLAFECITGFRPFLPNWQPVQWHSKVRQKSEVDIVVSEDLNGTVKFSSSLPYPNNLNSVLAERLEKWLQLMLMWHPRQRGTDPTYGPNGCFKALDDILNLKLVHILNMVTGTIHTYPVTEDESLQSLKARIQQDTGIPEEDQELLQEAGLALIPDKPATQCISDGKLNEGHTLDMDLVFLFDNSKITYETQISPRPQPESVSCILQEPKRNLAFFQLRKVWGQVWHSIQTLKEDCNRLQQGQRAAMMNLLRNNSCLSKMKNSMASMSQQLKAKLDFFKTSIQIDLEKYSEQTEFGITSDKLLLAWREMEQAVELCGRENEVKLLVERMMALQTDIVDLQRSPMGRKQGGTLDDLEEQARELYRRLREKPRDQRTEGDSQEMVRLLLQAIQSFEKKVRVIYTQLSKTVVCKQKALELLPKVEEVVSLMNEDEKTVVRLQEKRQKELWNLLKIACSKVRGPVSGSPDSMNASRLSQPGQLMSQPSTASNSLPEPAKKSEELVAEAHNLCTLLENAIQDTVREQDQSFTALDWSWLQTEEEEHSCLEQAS
Kind of series: Selectivity for JNK: protein kinase panel, IKK2. The series is classed as biochemical. The procedure: as §1

Series [1] deals with rat ventral mesencephalan dopaminergic neurons. Kind of series: [3H]Dopamine cell culture assay (6-OHDA neurotoxicity). Format: cell-based. The settings on record: 6-OHDA 30 μM, uptake 22 hours after exposure. The procedure: Cultures of dopaminergic neurons were prepared according to a modification of the procedure described by Raymon and Leslie (J. Neurochem. 62:1015-1024, 1994). Time-mated pregnant rats were sacrificed on embyronic day 14-15 (crown rump length 11-12 mm) and the embryos removed by cesarean section. The ventral mesencephalon, containing the dopaminergic neurons, was dissected from each embryo. Tissue pieces from approximately 48 embryos were pooled and dissociated both enzymatically and mechanically. An aliquot from the resulting cell suspension was counted and the cells were plated in high glucose DMEM/F12 culture medium with 10% fetal bovine serum at a density of 1×10^5 cells/well of a Biocoat poly-D-lysine-coated 96-well plate. The day following plating was considered 1 day in vitro (DIV). Cells were maintained in a stable environment at 37° C., 95% humidity, and 5% CO2. A partial medium change was performed at 3 DIV. […]
[^3H]Dopamine uptake is used as a measure of the health and integrity of dopaminergic neurons in culture (Prochiantz et al., PNAS 76: 5387-5391, 1979). […] Briefly, cells treated with 6-OHDA in the presence and absence of 5-amino-anthra(9,1-cd)isothiazol-6-one were assessed in the uptake assay 22 hrs after exposure to 6-OHDA. […] Radioactivity was removed and the cultures were washed 3× with ice cold PBS. […]

Series [2] is described as follows: Solubility in aqueous media (remark). Format: physicochemical.

Each structure is given as a SMILES string.

p38-2, sequence (Q15759 whole entry, species assumed): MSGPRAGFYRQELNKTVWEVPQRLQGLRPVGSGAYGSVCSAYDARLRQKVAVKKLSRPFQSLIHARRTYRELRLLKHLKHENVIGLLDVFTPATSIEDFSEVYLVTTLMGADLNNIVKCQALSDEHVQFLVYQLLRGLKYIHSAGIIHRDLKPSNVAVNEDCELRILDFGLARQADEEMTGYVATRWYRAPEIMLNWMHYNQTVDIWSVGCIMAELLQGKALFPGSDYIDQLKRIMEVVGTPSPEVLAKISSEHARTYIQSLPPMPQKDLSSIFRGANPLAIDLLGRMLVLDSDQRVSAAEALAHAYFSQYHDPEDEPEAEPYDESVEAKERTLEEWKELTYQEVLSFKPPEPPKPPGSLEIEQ

As to `Nc1ccc2snc3c2c1C(=O)c1ccccc1-3` [5-amino-anthra(9,1-cd)isothiazol-6-one], the IC50 on p38-2, at LKK1 and at IKK2 was above 30 µM each time. For the same molecule, the “Protection of dopaminergic neurons from 6-OHDA ([3H]dopamine uptake)” value in series [1] is on record as “protects rat ventral mesencephalan neurons from the toxic effects of 6-OHDA”. Also, the “Solubility in aqueous media” value in series [2] is “limited solubility”.
